Measurements as given in US20260265203A1, “CRYSTAL FORMS OF NITROGEN-CONTAINING SPIRO COMPOUND, PREPARATION METHOD THEREFOR AND USE THEREOF” (WUHAN CREATERNA SCIENCE AND TECHNOLOGY CO., LTD., priority 2023, published 2026).
Converted amounts (≈) assume the structure as drawn. Like-named read-outs stand apart in the source and are kept apart here.

Assays:
[1] = test system: alternative pathway; assay: Rabbit erythrocyte hemolysis assay (alternative pathway inhibition); assay type: cell-based, human; settings: rabbit erythrocytes, NHP or NHS (matrix of the value not stated)
Excerpt: Normal Human Serum (NHS) (collected from healthy individuals), Normal Human Plasma (NHP) (Shanghai Yuduo), 96-well enzyme-linked immunosorbent assay (ELISA) plates (Jet Biofil), Japanese big-ear white rabbits (Wuhan WQJX Biotechnology), Alsever's solution (Procell), centrifuge (Thermo, PICO17), constant temperature shaker (Shanghai Fuma), decolorization shaker (Beijing Liuyi Biotechnology), cell counter (Invitrogen, Counter Countess II). GVB°, EGTA, MgCl2, NaOH, microplate reader, microplate thermostatic shaker, pipettes, etc., were the same as Experiment 1.
48% NHP: 100% NHP was diluted to a concentration of 48% with buffer.
26.4% NPS: 100% NHS was diluted to a concentration of 26.4% with buffer. […]
In a 96-well microplate, for the experimental group 50 μL of 48% NHP or 26.4% NHS and 50 μL of compound solution were added; for the positive control group 50 μL of 48% NHP or 26.4% NHS and 50 μL of buffer containing 0.2% DMSO were added; for the blank control group 50 μL of 48% inactivated NHP or 26.4% inactivated NHS and 50 μL of buffer containing 0.2% DMSO were added; for the H2O group 100 μL of double-distilled water was added. […] The plate was centrifuged at 2000 g (3380 rpm) for 5 minutes, and 100 μL of supernatant was transferred to a new 96-well microplate, after which absorbance was measured at 415 nm. […]

[2] = Heating experiment of crystal form II; assay type: physicochemical
Excerpt: The resulting solids were subsequently characterized by XRPD, TGA, DSC, and ^1H NMR testings.

[3] = Water activity experiment (crystal form by XRPD); assay type: physicochemical
Description: Organic solvent and water were mixed at molar ratios of 0.001:0.999, 0.2:0.8, 0.5:0.5, 0.8:0.2, and 0.999:0.001. […] The mixtures were stirred at 25° C. and 50° C. for 30 minutes, respectively, followed by filtration, and the filtrate was collected. […] The results were analyzed after stirring for 5 days and 11 days, respectively.

[4] = Wet grinding crystal transformation experiment; assay type: physicochemical; settings: manual grinding with water or ethanol for 10 minutes
Description: 0.04 mL of water or ethanol was added, and manual grinding was performed for 2 min, 5 min, and 10 min, respectively. After each grinding period, XRPD was measured. If the solvent completely evaporates during the grinding process, an additional 0.04 mL of water or ethanol should be added to the mortar each time.

[5] = Determination of stability in biosolvents (HPLC purity); assay type: physicochemical
Description: (§1) The analysis and detection of samples were conducted using Shimadzu instruments. Both stability and solubility experiments were measured using the following methods.
After thorough stirring for 0.5 hours, 2 hours, and 24 hours, the mixed solutions were diluted to 10 mL, and their purity was determined using HPLC. […] Main impurities are indicated by the boxes in FIGS. 26 to 29.

[6] = Stability of crystal form I in DMSO under high-temperature conditions (LCMS purity); assay type: physicochemical
Description: The LCMS curve was acquired using a Shimadzu instrument.
The suspension was stirred at 50° C. for 24 hours and 48 hours, respectively. The solid and filtrate were then analyzed by LCMS.

[7] = Hygroscopicity experiment (DVS); assay type: physicochemical
Description: The sample was analyzed using Intrinsic DVS ([…] UK). The test sample, approximately 20~30 mg, was placed into the sample basket and suspended in the measurement chamber. The temperature in the test chamber was maintained at 25±1° C., while the relative humidity is increased from 0% to 90% and then decreased back to 0% at a rate of 10% per hour. Mass data was recorded every 20 seconds. Each gradient pause lasts 60 minutes.
No change in crystal form was observed before and after the DVS measurement.

[8] = Solubility experiments in biosolvents and water; assay type: physicochemical
Description: as §1
The samples were fully stirred in SGF, FaSSIF, FeSSIF, and water for 0.5 hours, 2 hours, and 24 hours before being withdrawn. Their solubility was determined using HPLC, and the solid form in the suspensions was analyzed by XRPD for its crystal form.

[9] = Solid-state stability experiment under open conditions (HPLC purity, XRPD); assay type: physicochemical
Description: as §1
The purity was determined by HPLC.

[10] = Tablet compression experiment; assay type: physicochemical; settings: compressed at 40 MPa
[11] = 25° C., DMSO-H2O, aw 0.0003-0.999
[12] = 50° C., DMSO-H2O, aw 0.0003-0.999
[13] = simulated gastric fluid, thermodynamic from solid, SGF
[14] = thermodynamic from solid, FaSSIF
[15] = thermodynamic from solid, FeSSIF
[16] = thermodynamic from solid, Water

NCc1cccc(-c2cc(COc3ccccc3CC(=O)O)cc(N3CCC4(CC3)CC4)c2)c1 [Compound of formula A, 2-(2-((3′-(aminomethyl)-5-(6-azaspiro[2.5]octan-6-yl)-[1,1′-biphenyl]-3-yl)methoxy)phenyl)acetic Acid]
IC50 [1]: 0.041 µM

NCc1cccc(-c2cc(COc3ccccc3CC(=O)O)cc(N3CCC4(CC3)CC4)c2)c1 [crystal form II]
Crystal form (XRPD) after heating ([2]; heated to 140° C.): no change in the crystal form | Crystal form (XRPD) after heating ([2]; heated to 200° C.): crystal form I

NCc1cccc(-c2cc(COc3ccccc3CC(=O)O)cc(N3CCC4(CC3)CC4)c2)c1 [crystal form I]
Result (5 days): solid form ([3]; 25° C., ACN-H2O, aw 0.90-1.00): Crystal form I | Result (11 days): solid form ([3]; 25° C., ACN-H2O, aw 0.90-1.00): Crystal | Result (5 days): solid form [3, 11]: Crystal form I | Result (11 days): solid form [3, 11]: Crystal | Result (5 days): solid form ([3]; 25° C., IPA-H2O, aw 0.003-0.99): Crystal form I | Result (11 days): solid form ([3]; 25° C., IPA-H2O, aw 0.003-0.99): Crystal | Result (5 days): solid form ([3]; 50° C., ACN-H2O, aw 0.01-1.00): Crystal form I | Result (11 days): solid form ([3]; 50° C., ACN-H2O, aw 0.01-1.00): Crystal | Result (5 days): solid form [3, 12]: Crystal form I | Result (11 days): solid form [3, 12]: Crystal | Result (5 days): solid form ([3]; 50° C., IPA-H2O, aw 0.003-0.99): Crystal form I | Result (11 days): solid form ([3]; 50° C., IPA-H2O, aw 0.003-0.99): Crystal | Crystal form (XRPD) after wet grinding [4]: remained unchanged | HPLC main peak purity ([5]; 0 h): 99.33% | HPLC main peak purity ([5]; FaSSIF, 0.5 h): 98.97% | HPLC main peak purity ([5]; FaSSIF, 2 h): 98.91% | HPLC main peak purity ([5]; FaSSIF, 24 h): 98.86% | HPLC main peak purity ([5]; FeSSIF, 0.5 h): 99.50% | HPLC main peak purity ([5]; FeSSIF, 2 h): 99.34% | HPLC main peak purity ([5]; FeSSIF, 24 h): 98.04% | HPLC main peak purity ([5]; FeSSIF, starting value of the decline as stated in the text): 99.56% | HPLC main peak purity ([5]; SGF, 0.5 h): 99.13% | HPLC main peak purity ([5]; SGF, 2 h): 99.10% | HPLC main peak purity ([5]; SGF, 24 h): 99.08% | HPLC main peak purity ([5]; Water, 0.5 h): 99.06% | HPLC main peak purity ([5]; Water, 2 h): 98.79% | HPLC main peak purity ([5]; Water, 24 h): 98.77. % | Purity by LCMS (254 nm) ([6]; crystal form I before stirring): 99.06% | Purity by LCMS (254 nm) ([6]; stirred in DMSO at 50° C. for 24 hours, filtrate): 98.71% | Purity by LCMS (254 nm) ([6]; stirred in DMSO at 50° C. for 24 hours, solid): 99.48% | Purity by LCMS (254 nm) ([6]; stirred in DMSO at 50° C. for 48 hours, filtrate): 97.14% | Purity by LCMS (254 nm) ([6]; stirred in DMSO at 50° C. for 48 hours, solid): 98.92% | Crystal form (XRPD) before and after the DVS measurement [7]: No change | weight gain (DVS) ([7]; 0-80% RH, 25° C.): 0.55% | hygroscopicity ([7]; DVS): slight hygroscopicity | solubility ([8]; Water, 0.5 h): LOQ | Crystal form (XRPD) of suspended solid ([8]; after stirring for 24 hours in FaSSIF, FeSSIF, and water): remained unchanged | solubility at 0.5 h ([8]; simulated gastric fluid, thermodynamic from solid, SGF, 0.5 h): > 5000 µg/mL | solubility at 2 h [8, 13]: > 5000 µg/mL | solubility at 24 h [8, 13]: > 5000 µg/mL | solubility ([8]; simulated gastric fluid, thermodynamic from solid, SGF, read-out: solubility in SGF): > 5000 µg/mL | solubility at 0.5 h ([8]; thermodynamic from solid, FaSSIF, 0.5 h): 54 µg/mL (≈ 118 µM) | solubility at 2 h [8, 14]: 66 µg/mL (≈ 145 µM) | solubility at 24 h [8, 14]: 75 µg/mL (≈ 164 µM) | solubility ([8]; thermodynamic from solid, FaSSIF, FeSSIF, and water, read-out: solubility in FaSSIF, FeSSIF, and water): < 730 µg/mL | solubility at 0.5 h ([8]; thermodynamic from solid, FeSSIF, 0.5 h): 630 µg/mL (≈ 1380 µM) | solubility at 2 h [8, 15]: 700 µg/mL (≈ 1530 µM) | solubility at 24 h [8, 15]: 730 µg/mL (≈ 1600 µM) | solubility at 2 h [8, 16]: 0.2 µg/mL (≈ 0.438 µM) | solubility at 24 h [8, 16]: 0.58 µg/mL (≈ 1.27 µM) | HPLC main peak purity ([9]; 0 days (initial)): 99.33% | HPLC main peak purity ([9]; open, 25° C./60% RH, 3 days): 99.34% | HPLC main peak purity ([9]; open, 25° C./60% RH, 7 days): 98.95% | HPLC main peak purity ([9]; open, 25° C./60% RH, 14 days): 99.43% | HPLC main peak purity ([9]; open, 25° C./90%(±5%) RH, 3 days): 99.18% | HPLC main peak purity ([9]; open, 25° C./90%(±5%) RH, 7 days): 98.96% | HPLC main peak purity ([9]; open, 25° C./90%(±5%) RH, 14 days): 99.52% | HPLC main peak purity ([9]; open, 40° C./75% RH, 3 days): 99.30% | HPLC main peak purity ([9]; open, 40° C./75% RH, 7 days): 99.00% | HPLC main peak purity ([9]; open, 40° C./75% RH, 14 days): 99.48% | Crystal form (XRPD) after storage ([9]; open, 60° C., 25° C./60% RH, 40° C./75% RH, 25° C./90(±5)% RH, 14 days): remained unchanged | HPLC main peak purity ([9]; open, 60° C., 3 days): 99.36% | HPLC main peak purity ([9]; open, 60° C., 7 days): 98.92% | HPLC main peak purity ([9]; open, 60° C., 14 days): 99.44% | Crystal form (XRPD) after tablet compression [10]: remained unchanged
